# Data as given in publication PMC6582486, “Stapled EGFR peptide reduces inflammatory breast cancer and inhibits additional HER-driven models of cancer” (Journal of Translational Medicine, 2019).
# Where a SMILES comes first, the peptide text is derived from it. Bridges are numbered along the chain shown (N, C = ends). [ ]: non-standard residue; d: D form. R8 = C=CCCCCCC[C@@](C)(N)C(=O)O; S5 = C=CCCC[C@](C)(N)C(=O)O
# Test: Plasma concentration after tail-vein injection (toxicokinetics);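 for SAH-EJ1 concentration in plasma: BQL means below the quantifiable limit of 0.5 µg/mL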
# Type: in vivo, CD-1 mice
# Procedure: Toxicology was performed by IITRI. The study was conducted in compliance with the US Food and Drug Administration (FDA) good laboratory practice (GLP) Regulations (Code of Federal Regulations Title 21 Part 58) to evaluate the toxicokinetics, local tolerability, immunogenicity, and potential toxicity of SAH5-EJ1 following three times per week intravenous (IV) dosing for 28 days in mice. Male and female CD-1 IGS [Crl:CD1(ICR)] mice (135 per sex) were received from Wilmington, MA-based Charles River Laboratories, Inc.’s Kingston facility (Stone Ridge, NY).
smiles,measurement,setting,value
CC[C@H](C)[C@H](NC(=O)[C@H](Cc1c[nH]cn1)NC(=O)[C@H](CCCNC(=N)N)NC(=O)[C@H](CCCNC(=N)N)NC(=O)[C@H](CCCNC(=N)N)NC(=O)[C@H](CCSC)NC(=O)[C@H](Cc1ccccc1)NC(=O)[C@H](C)NC(=O)[C@H](CCCNC(=N)N)NC(=O)[C@H](C)NC(=O)[C@H](CCC(N)=O)NC(=O)[C@H](CCCNC(=N)N)NC(=O)[C@H](C)NC(=O)[C@H](C)NC(=O)[C@H](C)NC(=O)[C@H](CCCNC(=N)N)NC(=O)[C@H](C)NC(=O)[C@@H](N)Cc1ccc(O)cc1)C(=O)N[C@H](C(=O)N[C@@H](CCCNC(=N)N)C(=O)N[C@@H](CCCCN)C(=O)N[C@@H](CCCNC(=N)N)C(=O)N[C@]1(C)CCCCCCC=CCCC[C@@](C)(C(=O)N[C@@H](CCCNC(=N)N)C(=O)N[C@@H](CCC(=O)O)C(N)=O)NC(=O)[C@H](CCC(N)=O)NC(=O)[C@H](CC(C)C)NC(=O)[C@H](CC(C)C)NC(=O)[C@H](CCCNC(=N)N)NC(=O)[C@H](CCCNC(=N)N)NC(=O)[C@H](CC(C)C)NC1=O)C(C)C [SAH5-EJ1] (H-YARAAARQARAFMRRRHIVRKR[R8]LRRLLQ[S5]RE-NH2; staple 23-30),SAH-EJ1 concentration in plasma,"female, 15 mg/kg IV, day 1, 2 h, mouse 1 of 3",BQL (BQL represents below quantifiable limits (0.5 µg/mL))
same,SAH-EJ1 concentration in plasma,"female, 15 mg/kg IV, day 1, 2 h, mouse 2 of 3",BQL (BQL represents below quantifiable limits (0.5 µg/mL))
same,SAH-EJ1 concentration in plasma,"female, 15 mg/kg IV, day 1, 2 h, mouse 3 of 3",BQL (BQL represents below quantifiable limits (0.5 µg/mL))
same,SAH-EJ1 concentration in plasma,"female, 15 mg/kg IV, day 1, 4 h, mouse 1 of 3",BQL (BQL represents below quantifiable limits (0.5 µg/mL))
same,SAH-EJ1 concentration in plasma,"female, 15 mg/kg IV, day 1, 4 h, mouse 2 of 3",BQL (BQL represents below quantifiable limits (0.5 µg/mL))
same,SAH-EJ1 concentration in plasma,"female, 15 mg/kg IV, day 1, 4 h, mouse 3 of 3",BQL (BQL represents below quantifiable limits (0.5 µg/mL))
same,SAH-EJ1 concentration in plasma,"female, 15 mg/kg IV, day 1, 8 h, mouse 1 of 3",BQL (BQL represents below quantifiable limits (0.5 µg/mL))
same,SAH-EJ1 concentration in plasma,"female, 15 mg/kg IV, day 1, 8 h, mouse 2 of 3",BQL (BQL represents below quantifiable limits (0.5 µg/mL))
same,SAH-EJ1 concentration in plasma,"female, 15 mg/kg IV, day 1, 8 h, mouse 3 of 3",BQL (BQL represents below quantifiable limits (0.5 µg/mL))
same,SAH-EJ1 concentration in plasma,"female, 15 mg/kg IV, day 1, 24 h, mouse 1 of 3",BQL (BQL represents below quantifiable limits (0.5 µg/mL))
same,SAH-EJ1 concentration in plasma,"female, 15 mg/kg IV, day 1, 24 h, mouse 2 of 3",BQL (BQL represents below quantifiable limits (0.5 µg/mL))
same,SAH-EJ1 concentration in plasma,"female, 15 mg/kg IV, day 1, 24 h, mouse 3 of 3",BQL (BQL represents below quantifiable limits (0.5 µg/mL))
same,time by which peptide was not detectable in plasma,"male mice, highest body weight dosage",≤ 4 h
same,SAH-EJ1 concentration in plasma,"male, 5 mg/kg IV, day 1, 1 h, mouse 3 of 3",BQL (BQL represents below quantifiable limits (0.5 µg/mL))
same,SAH-EJ1 concentration in plasma,"male, 5 mg/kg IV, day 1, 2 h, mouse 1 of 3",BQL (BQL represents below quantifiable limits (0.5 µg/mL))
same,SAH-EJ1 concentration in plasma,"male, 5 mg/kg IV, day 1, 2 h, mouse 2 of 3",BQL (BQL represents below quantifiable limits (0.5 µg/mL))
same,SAH-EJ1 concentration in plasma,"male, 5 mg/kg IV, day 1, 2 h, mouse 3 of 3",BQL (BQL represents below quantifiable limits (0.5 µg/mL))
same,SAH-EJ1 concentration in plasma,"male, 5 mg/kg IV, day 1, 4 h, mouse 1 of 3",BQL (BQL represents below quantifiable limits (0.5 µg/mL))
same,SAH-EJ1 concentration in plasma,"male, 5 mg/kg IV, day 1, 4 h, mouse 2 of 3",BQL (BQL represents below quantifiable limits (0.5 µg/mL))
same,SAH-EJ1 concentration in plasma,"male, 5 mg/kg IV, day 1, 4 h, mouse 3 of 3",BQL (BQL represents below quantifiable limits (0.5 µg/mL))
same,SAH-EJ1 concentration in plasma,"male, 5 mg/kg IV, day 1, 8 h, mouse 1 of 3",BQL (BQL represents below quantifiable limits (0.5 µg/mL))
same,SAH-EJ1 concentration in plasma,"male, 5 mg/kg IV, day 1, 8 h, mouse 2 of 3",BQL (BQL represents below quantifiable limits (0.5 µg/mL))
same,SAH-EJ1 concentration in plasma,"male, 5 mg/kg IV, day 1, 8 h, mouse 3 of 3",BQL (BQL represents below quantifiable limits (0.5 µg/mL))
same,SAH-EJ1 concentration in plasma,"male, 5 mg/kg IV, day 1, 24 h, mouse 1 of 3",BQL (BQL represents below quantifiable limits (0.5 µg/mL))
same,SAH-EJ1 concentration in plasma,"male, 5 mg/kg IV, day 1, 24 h, mouse 2 of 3",BQL (BQL represents below quantifiable limits (0.5 µg/mL))
same,SAH-EJ1 concentration in plasma,"male, 5 mg/kg IV, day 1, 24 h, mouse 3 of 3",BQL (BQL represents below quantifiable limits (0.5 µg/mL))
same,SAH-EJ1 concentration in plasma,"male, 10 mg/kg IV, day 1, 2 h, mouse 1 of 3",BQL (BQL represents below quantifiable limits (0.5 µg/mL))
same,SAH-EJ1 concentration in plasma,"male, 10 mg/kg IV, day 1, 2 h, mouse 2 of 3",BQL (BQL represents below quantifiable limits (0.5 µg/mL))
same,SAH-EJ1 concentration in plasma,"male, 10 mg/kg IV, day 1, 2 h, mouse 3 of 3",BQL (BQL represents below quantifiable limits (0.5 µg/mL))
same,SAH-EJ1 concentration in plasma,"male, 10 mg/kg IV, day 1, 4 h, mouse 1 of 3",BQL (BQL represents below quantifiable limits (0.5 µg/mL))
same,SAH-EJ1 concentration in plasma,"male, 10 mg/kg IV, day 1, 4 h, mouse 2 of 3",BQL (BQL represents below quantifiable limits (0.5 µg/mL))
same,SAH-EJ1 concentration in plasma,"male, 10 mg/kg IV, day 1, 4 h, mouse 3 of 3",BQL (BQL represents below quantifiable limits (0.5 µg/mL))
same,SAH-EJ1 concentration in plasma,"male, 10 mg/kg IV, day 1, 8 h, mouse 1 of 3",BQL (BQL represents below quantifiable limits (0.5 µg/mL))
same,SAH-EJ1 concentration in plasma,"male, 10 mg/kg IV, day 1, 8 h, mouse 2 of 3",BQL (BQL represents below quantifiable limits (0.5 µg/mL))
same,SAH-EJ1 concentration in plasma,"male, 10 mg/kg IV, day 1, 8 h, mouse 3 of 3",BQL (BQL represents below quantifiable limits (0.5 µg/mL))
same,SAH-EJ1 concentration in plasma,"male, 10 mg/kg IV, day 1, 24 h, mouse 1 of 3",BQL (BQL represents below quantifiable limits (0.5 µg/mL))
same,SAH-EJ1 concentration in plasma,"male, 10 mg/kg IV, day 1, 24 h, mouse 2 of 3",BQL (BQL represents below quantifiable limits (0.5 µg/mL))
same,SAH-EJ1 concentration in plasma,"male, 10 mg/kg IV, day 1, 24 h, mouse 3 of 3",BQL (BQL represents below quantifiable limits (0.5 µg/mL))
same,SAH-EJ1 concentration in plasma,"male, 15 mg/kg IV, day 1, 1 h, mouse 1 of 3",BQL (BQL represents below quantifiable limits (0.5 µg/mL))
same,SAH-EJ1 concentration in plasma,"male, 15 mg/kg IV, day 1, 2 h, mouse 1 of 3",BQL (BQL represents below quantifiable limits (0.5 µg/mL))
same,SAH-EJ1 concentration in plasma,"male, 15 mg/kg IV, day 1, 2 h, mouse 3 of 3",BQL (BQL represents below quantifiable limits (0.5 µg/mL))
same,SAH-EJ1 concentration in plasma,"male, 15 mg/kg IV, day 1, 4 h, mouse 1 of 3",BQL (BQL represents below quantifiable limits (0.5 µg/mL))
same,SAH-EJ1 concentration in plasma,"male, 15 mg/kg IV, day 1, 4 h, mouse 2 of 3",BQL (BQL represents below quantifiable limits (0.5 µg/mL))
same,SAH-EJ1 concentration in plasma,"male, 15 mg/kg IV, day 1, 4 h, mouse 3 of 3",BQL (BQL represents below quantifiable limits (0.5 µg/mL))
same,SAH-EJ1 concentration in plasma,"male, 15 mg/kg IV, day 1, 8 h, mouse 1 of 3",BQL (BQL represents below quantifiable limits (0.5 µg/mL))
same,SAH-EJ1 concentration in plasma,"male, 15 mg/kg IV, day 1, 8 h, mouse 2 of 3",BQL (BQL represents below quantifiable limits (0.5 µg/mL))
same,SAH-EJ1 concentration in plasma,"male, 15 mg/kg IV, day 1, 8 h, mouse 3 of 3",BQL (BQL represents below quantifiable limits (0.5 µg/mL))
same,SAH-EJ1 concentration in plasma,"male, 15 mg/kg IV, day 1, 24 h, mouse 1 of 3",BQL (BQL represents below quantifiable limits (0.5 µg/mL))
same,SAH-EJ1 concentration in plasma,"male, 15 mg/kg IV, day 1, 24 h, mouse 2 of 3",BQL (BQL represents below quantifiable limits (0.5 µg/mL))
same,SAH-EJ1 concentration in plasma,"male, 15 mg/kg IV, day 1, 24 h, mouse 3 of 3",BQL (BQL represents below quantifiable limits (0.5 µg/mL))
